Reference: ChEMBL document CHEMBL5113408, “Design, synthesis and antitumour activity of novel 5(6)-amino-benzimidazolequinones containing a fused morpholine” (Eur J Med Chem, 2022)
pIC50: −log10 of the molar value. Activity calls are given as the source filed them. The rule behind the calls is not given here.

Experiments:
HeLa = experiment: Antiproliferative activity against human HeLa cells assessed as inhibition of cell growth by SRB assay; format: functional, cell-based
[1] = Antiproliferative activity against human L02 cells assessed as inhibition of cell growth incubated for 72 hrs by SRB assay; format: toxicity, cell-based
MGC-803 [2] = experiment: Antiproliferative activity against human MGC-803 cells assessed as inhibition of cell growth incubated for 72 hrs by SRB assay; format: functional, cell-based; conditions: MGC-803, 72 h
HGC-27 [3] = experiment: Antiproliferative activity against human HGC-27 cells assessed as inhibition of cell growth incubated for 72 hrs by SRB assay; format: functional, cell-based; conditions: HGC-27, 72 h
MGC-803 [4] = experiment: Antiproliferative activity against human MGC-803 cells assessed as inhibition of cell growth at 0.25 to 8 uM by SRB assay; format: functional, cell-based; conditions: dose 0.25-8 µM, time 24-72 hrs, TDE = time-dependent effect
HGC-27 [5] = experiment: Inhibition of colony formation in human HGC-27 cells incubated for 24 hrs with fresh medium replacement for every two days measured for 11 days by crystal voilet staining based assay; format: functional, cell-based; conditions: dose 0.5-2 µM, time 11.0 day, DDE = dose-dependent effect
MGC-803 [6] = experiment: Induction of mitochondrial membrane depolarization in human MGC-803 cells incubated for 48 hrs by flow cytometry analysis; format: functional, cell-based; conditions: dose 1-4 µM, DDE = dose-dependent effect
MGC-803 [7] = experiment: Induction of apoptosis in human MGC-803 cells assessed as decrease in caspase 7 protein expression level at 1 to 4 uM incubated for 48 hrs by Western blot analysis; format: functional, cell-based; conditions: dose 1-4 µM
HGC-27 [8] = experiment: Induction of apoptosis in human HGC-27 cells assessed as decrease in caspase 7 protein expression level at 1 to 4 uM incubated for 48 hrs by Western blot analysis; format: functional, cell-based; conditions: dose 1-4 µM
HGC-27 [9] = experiment: Induction of apoptosis in human HGC-27 cells assessed as increase in cleaved caspase 3 protein expression level at 1 to 4 uM incubated for 48 hrs by Western blot analysis; format: functional, cell-based; conditions: dose 1-4 µM
MGC-803 [10] = experiment: Induction of apoptosis in human MGC-803 cells assessed as increase in cleaved caspase 9 protein expression level at 1 to 4 uM incubated for 48 hrs by Western blot analysis; format: functional, cell-based; conditions: dose 1-4 µM
MGC-803 [11] = experiment: Induction of cell cycle arrest in human MGC-803 cells assessed as accumulation of cells at G1 phase at 1 uM incubated for 36 hrs by PI staining based flow cytometry analysis (reference value: 45.8%); format: functional
MGC-803 [12] = experiment: Induction of cell cycle arrest in human MGC-803 cells assessed as accumulation of cells at S phase at 1 uM incubated for 36 hrs by PI staining based flow cytometry analysis (reference value: 20.5%); format: functional
MGC-803 [13] = experiment: Induction of cell cycle arrest in human MGC-803 cells assessed as accumulation of cells at G2/M phase at 1 uM incubated for 36 hrs by PI staining based flow cytometry analysis (reference value: 20.5%); format: functional
MGC-803 [14] = experiment: Induction of cell cycle arrest in human MGC-803 cells assessed as accumulation of cells at S phase at 2 uM incubated for 36 hrs by PI staining based flow cytometry analysis (reference value: 20.5%); format: functional
MGC-803 [15] = experiment: Induction of cell cycle arrest in human MGC-803 cells assessed as accumulation of cells at G1 phase at 4 uM incubated for 36 hrs by PI staining based flow cytometry analysis (reference value: 45.8%); format: functional
MGC-803 [16] = experiment: Induction of cell cycle arrest in human MGC-803 cells assessed as accumulation of cells at S phase at 4 uM incubated for 36 hrs by PI staining based flow cytometry analysis (reference value: 20.5%); format: functional
HGC-27 [17] = experiment: Induction of cell cycle arrest in human HGC-27 cells assessed as accumulation of cells at G1 phase at 1 uM incubated for 36 hrs by PI staining based flow cytometry analysis (reference value: 49.6%); format: functional
HGC-27 [18] = experiment: Induction of cell cycle arrest in human HGC-27 cells assessed as accumulation of cells at S phase at 1 uM incubated for 36 hrs by PI staining based flow cytometry analysis (reference value: 8.87%); format: functional
HGC-27 [19] = experiment: Induction of cell cycle arrest in human HGC-27 cells assessed as accumulation of cells at S phase at 4 uM incubated for 36 hrs by PI staining based flow cytometry analysis (reference value: 8.87%); format: functional
HGC-27 [20] = experiment: Induction of cell cycle arrest in human HGC-27 cells assessed as accumulation of cells at G2/M phase at 4 uM incubated for 36 hrs by PI staining based flow cytometry analysis (reference value: 26.2%); format: functional
MGC-803 [21] = experiment: Induction of cell cycle arrest in human MGC-803 cells assessed as decrease in p-cdc2 level at 1 to 4 uM by Western blot analysis; format: functional, cell-based; conditions: dose 1-4 µM
HGC-27 [22] = experiment: Induction of cell cycle arrest in human HGC-27 cells assessed as decrease in p-cdc2 level at 1 to 4 uM by Western blot analysis; format: functional, cell-based; conditions: dose 1-4 µM
MGC-803 [23] = experiment: Activation of ROS/JNK signalling in human MGC-803 cells assessed as increase in p-ASK1 level by Western blot analysis; format: cell-based; conditions: filed as activator, dose 1-4 µM, DDE = dose-dependent effect
MGC-803 [24] = experiment: Activation of ROS/JNK signalling in human MGC-803 cells assessed as increase in p-MKK4 level by Western blot analysis; format: cell-based; conditions: filed as activator, dose 1-4 µM, DDE = dose-dependent effect
HGC-27 [25] = experiment: Activation of ROS/JNK signalling in human HGC-27 cells assessed as increase in p-JNK level at 1 to 4 uM by Western blot analysis; format: cell-based; conditions: filed as activator, dose 1-4 µM
MGC-803 [26] = experiment: Induction of apoptosis in human MGC-803 cells incubated for 48 hrs by Annexin V-FITC and PI staining based flow cytometry analysis; format: functional
MGC-803 [27] = experiment: Induction of apoptosis in human MGC-803 cells incubated for 48 hrs in presence of NAC by Annexin V-FITC and PI staining based flow cytometry analysis; format: functional
MGC-803 [28] = experiment: Induction of DNA damage in human MGC-803 cells assessed as increase in p-ATM generation incubated for 48 hrs by Western blot analysis; format: functional, cell-based; conditions: DDE = dose-dependent effect
HGC-27 [29] = experiment: Induction of DNA damage in human HGC-27 cells assessed as increase in p-ATM generation incubated for 48 hrs by Western blot analysis; format: functional, cell-based; conditions: DDE = dose-dependent effect
MGC-803 [30] = experiment: Induction of DNA damage in human MGC-803 cells assessed as increase in p-Chk generation incubated for 48 hrs by Western blot analysis; format: functional, cell-based; conditions: DDE = dose-dependent effect
HGC-27 [31] = experiment: Induction of DNA damage in human HGC-27 cells assessed as increase in p-Chk generation incubated for 48 hrs by Western blot analysis; format: functional, cell-based; conditions: DDE = dose-dependent effect
MGC-803 [32] = experiment: Antitumor activity against human MGC-803 cells xenografted with BALB/c mouse assessed as reduction in tumor growth at 10 to 20 mg/kg, ip administered once every two days; format: functional, organism-based; conditions: dose 10-20 mg/kg
MGC-803 [33] = experiment: Antitumor activity against human MGC-803 cells xenografted with BALB/c mouse assessed as wrinkled nuclei at 10 to 20 mg/kg, ip administered once every two days; format: functional, organism-based; conditions: dose 10-20 mg/kg
MGC-803 [34] = experiment: Antitumor activity against human MGC-803 cells xenografted with BALB/c mouse assessed as vacuolated cytoplasm at 10 to 20 mg/kg, ip administered once every two days; format: functional, organism-based; conditions: dose 10-20 mg/kg
[35] = Toxicity in BALB/c mouse xenografted with human MGC-803 cells assessed as effect on liver at 10 to 20 mg/kg, ip administered once every two days measured after 15 days by H and E staining based assay; format: organism-based; conditions: in vivo, 360 h, dose 10-20 mg/kg, time 15 day

- pIC50 (HeLa): 5.57
- pIC50 (MGC-803 [2]): 6.07
SMILES: Cc1ccc(NC2=CC(=O)c3nc4n(c3C2=O)[C@H]2OC[C@@H](O)[C@H]2OC4)cc1C
- IC50 at 72 h [1]: 24.8 µM
- pIC50 (HGC-27 [3]): 5.76
- Activity (MGC-803 [4]): Tde
- inhibition (HGC-27 [5]): Dde
- Activity (MGC-803 [6]): Dde
- Activity (MGC-803 [7]): Active
- Activity (HGC-27 [8]): Active
- Activity (HGC-27 [9]): Active
- Activity (MGC-803 [10]): Active
- Activity (MGC-803 [11]): 33.6%
- Activity (MGC-803 [12]): 35.4%
- Activity (MGC-803 [13]): 23.5%
- Activity (MGC-803 [14]): 39.3%
- Activity (MGC-803 [15]): 30.8%
- Activity (MGC-803 [16]): 34.1%
- Activity (HGC-27 [17]): 49.3%
- Activity (HGC-27 [18]): 8.8%
- Activity (HGC-27 [19]): 14.4%
- Activity (HGC-27 [20]): 33.3%
- Activity (MGC-803 [21]): Active
- Activity (HGC-27 [22]): Active
- Activity (MGC-803 [23]): Dde
- Activity (MGC-803 [24]): Dde
- Activity (HGC-27 [25]): Active
- Activity (MGC-803 [26]): 55.4%
- Activity (MGC-803 [27]): 9.29%
- Activity (MGC-803 [28]): Dde
- Activity (HGC-27 [29]): Dde
- Activity (MGC-803 [30]): Dde
- Activity (HGC-27 [31]): Dde
- Activity (MGC-803 [32]): Active
- Activity (MGC-803 [33]): Active
- Activity (MGC-803 [34]): Active
- Activity [35]: Non-Toxic
